The source of these data is ChEMBL document CHEMBL1121463, “N-Acetyl-[2-(O-methyl)tyrosine]arginine-vasopressin, an interesting antagonist of the vasopressor response to vasopressin” (J Med Chem, 1980).

The species entered for data set [1] is Rattus norvegicus. The data set is described as follows: Tested for anti-oxytocic activity against isolated rat uterus. The format is functional. As to conditions: read-out: pA2 (converted).
For data set [2], the species on record is Rattus norvegicus. Kind of data set: Tested for antidiuretic activity against rats. The format is functional, Urine.
The species named for data set [3] is Rattus norvegicus. Kind of data set: The vasopressor value (agonistic) of compound was tested on rat […]. The format is functional.
The species entered for data set [4] is Rattus norvegicus. The data set is described as follows: The anti-oxytocic pA2 value (antagonistic) of compound was tested on isolated rat uterus (with the 0.5 mM Mg+2). It counts as functional. To be noted: read-out: pA2 (converted).
The species entered for data set [5] is Rattus norvegicus. Kind of data set: Compound was tested for anti-vasopressor activity against rat. The format is functional, organism-based. As to conditions: read-out: pA2 (converted).
The species named for data set [6] is Rattus norvegicus. Kind of data set: Compound was tested for antidiuretic activity in rats. The format is ADME, organism-based, Urine. As to conditions: in vivo.
Data set [7] is filed under the species Rattus norvegicus. The data set is described as follows: Compound was tested for anti-vasopressor activity against rat; Inhibitor. It counts as functional, organism-based.
Data set [8] is filed under the species Rattus norvegicus. Kind of data set: Tested for anti-oxytocic activity against isolated rat uterus; Showed both agonistic and antagonistic activities. It counts as functional.
Data set [9] is filed under the species Rattus norvegicus. The data set is described as follows: Compound was tested for anti-vasopressor activity against rat; Weak. It counts as functional, organism-based.

Where a SMILES comes first, the peptide text is derived from it. Bridges are numbered along the chain shown (N, C = ends).

As for `CC[C@H](C)[C@@H]1NC(=O)[C@H](Cc2ccc(OC)cc2)NC(=O)[C@@H](NC(=O)CNC)CSSC[C@@H](C(=O)N2CCC[C@H]2C(=O)N[C@@H](CC(C)C)C(=O)NCC(N)=O)NC(=O)[C@H](CC(N)=O)NC(=O)[C@H](CCC(N)=O)NC1=O`, the Kb in the data set filed under Rattus norvegicus [1] was 302 nM. Consider `COc1ccc(C[C@@H]2NC(=O)[C@@H](NC(C)=O)CSSC[C@@H](C(=O)N3CCC[C@H]3C(=O)N[C@@H](CCCN=C(N)N)C(=O)NCC(N)=O)NC(=O)[C@H](CC(N)=O)NC(=O)[C@H](CCC(N)=O)NC(=O)[C@H](Cc3ccccc3)NC2=O)cc1` [listing 1 of 2 here], for which the Antidiuretic in the data set listed under Rattus norvegicus [2] is 0.026 U/mg. The molecule `COc1ccc(C[C@@H]2NC(=O)[C@@H](N)CSSC[C@@H](C(=O)N3CCC[C@H]3C(=O)N[C@@H](CCCN=C(N)N)C(=O)NCC(N)=O)NC(=O)[C@H](CC(N)=O)NC(=O)[C@H](CCC(N)=O)NC(=O)[C@H](Cc3ccccc3)NC2=O)cc1` [listing 1 of 2 here] registered an Antidiuretic in the data set listed under Rattus norvegicus [2] of 386 U/mg. This molecule also showed a Vasopressor activity in the data set filed under Rattus norvegicus [3] of 9.7 units/mg. For `COc1ccc(C[C@@H]2NC(=O)[C@@H](NC(C)=O)CSSC[C@@H](C(=O)N3CCC[C@H]3C(=O)N[C@@H](CCCN=C(N)N)C(=O)NCC(N)=O)NC(=O)[C@H](CC(N)=O)NC(=O)[C@H](CCC(N)=O)NC(=O)[C@H](Cc3ccccc3)NC2=O)cc1` [listing 2 of 2 here], the values for the Kb in the data set filed under Rattus norvegicus [1], in the data set listed under Rattus norvegicus [4] and in the data set listed under Rattus norvegicus [5] were 51.3 nM, 186 nM and 66.1 nM, respectively. As for `CC[C@H](C)[C@@H]1NC(=O)[C@H](Cc2ccc(OC)cc2)NC(=O)[C@@H](NC(N)=O)CSSC[C@@H](C(=O)N2CCC[C@H]2C(=O)N[C@@H](CC(C)C)C(=O)NCC(N)=O)NC(=O)[C@H](CC(N)=O)NC(=O)[C@H](CCC(N)=O)NC1=O`, the Kb in the data set listed under Rattus norvegicus [1] is 60.3 nM.

`CC[C@H](C)[C@@H]1NC(=O)[C@H](Cc2ccc(OC)cc2)NC(=O)[C@@H](N)CSSC[C@@H](C(=O)N2CCC[C@H]2C(=O)N[C@@H](CC(C)C)C(=O)NCC(N)=O)NC(=O)[C@H](CC(N)=O)NC(=O)[C@H](CCC(N)=O)NC1=O` gave an Antidiuretic in the data set listed under Rattus norvegicus [2] of 0.01 U/mg.

`CC[C@H](C)[C@@H]1NC(=O)[C@H](Cc2ccc(OC)cc2)NC(=O)[C@@H](NC(=O)CN)CSSC[C@@H](C(=O)N2CCC[C@H]2C(=O)N[C@@H](CC(C)C)C(=O)NCC(N)=O)NC(=O)[C@H](CC(N)=O)NC(=O)[C@H](CCC(N)=O)NC1=O` (H-GCY(Me)IQNCPLG-NH2; disulfide 2-7): the Kb in the data set listed under Rattus norvegicus [1] is 141 nM. `CC[C@H](C)[C@@H]1NC(=O)[C@H](Cc2ccc(O)cc2)NC(=O)[C@@H](N)CSSC[C@@H](C(=O)N2CCC[C@H]2C(=O)N[C@@H](CC(C)C)C(=O)NCC(N)=O)NC(=O)[C@H](CC(N)=O)NC(=O)[C@H](CCC(N)=O)NC1=O` [OXYTOCIN] came in with an Antidiuretic in the data set filed under Rattus norvegicus [6] of 4 U/mg.

`NC(=O)CC[C@@H]1NC(=O)[C@H](Cc2ccccc2)NC(=O)[C@H](Cc2ccc(O)cc2)NC(=O)[C@@H](N)CSSC[C@@H](C(=O)N2CCC[C@H]2C(=O)N[C@@H](CCCN=C(N)N)C(=O)NCC(N)=O)NC(=O)[C@H](CC(N)=O)NC1=O` (stereo in doubt; form 1) [VASOPRESSIN] returned an Antidiuretic in the data set listed under Rattus norvegicus [6] of 323 U/mg.

On to `COc1ccc(C[C@@H]2NC(=O)[C@@H](N)CSSC[C@@H](C(=O)N3CCC[C@H]3C(=O)N[C@@H](CCCN=C(N)N)C(=O)NCC(N)=O)NC(=O)[C@H](CC(N)=O)NC(=O)[C@H](CCC(N)=O)NC(=O)[C@H](Cc3ccccc3)NC2=O)cc1` [listing 2 of 2 here], for which the Kb in the data set filed under Rattus norvegicus [1] was 36.3 nM; in the data set listed under Rattus norvegicus [4], 457 nM. In the case of `CC[C@H](C)[C@@H]1NC(=O)[C@@H](Cc2ccc(OC)cc2)NC(=O)[C@H](NC(C)=O)CSSC[C@@H](C(=O)N2CCC[C@@H]2C(=O)N[C@@H](CC(C)C)C(=O)NCC(N)=O)NC(=O)[C@H](CC(N)=O)NC(=O)[C@@H](CCC(N)=O)NC1=O`, the pA2 result in the data set listed under Rattus norvegicus [7] is on record as “Inhibition”. The same measure, in the same setting: the same measure for `CC[C@H](C)[C@@H]1NC(=O)[C@@H](Cc2ccc(OC)cc2)NC(=O)[C@H](NC(N)=O)CSSC[C@@H](C(=O)N2CCC[C@@H]2C(=O)N[C@@H](CC(C)C)C(=O)NCC(N)=O)NC(=O)[C@H](CC(N)=O)NC(=O)[C@@H](CCC(N)=O)NC1=O`: “Inhibition”. With `CC[C@H](C)[C@@H]1NC(=O)[C@@H](Cc2ccc(OC)cc2)NC(=O)[C@H](N)CSSC[C@@H](C(=O)N2CCC[C@@H]2C(=O)N[C@@H](CC(C)C)C(=O)NCC(N)=O)NC(=O)[C@H](CC(N)=O)NC(=O)[C@@H](CCC(N)=O)NC1=O`, the pA2 entry is “Mixed” in the data set listed under Rattus norvegicus [8] and “Weak” in the data set filed under Rattus norvegicus [9]. Take `CC[C@H](C)[C@@H]1NC(=O)[C@H](Cc2ccc(OC)cc2)NC(=O)[C@@H](NC(C)=O)CSSC[C@@H](C(=O)N2CCC[C@H]2C(=O)N[C@@H](CC(C)C)C(=O)NCC(N)=O)NC(=O)[C@H](CC(N)=O)NC(=O)[C@H](CCC(N)=O)NC1=O`: in the data set filed under Rattus norvegicus [1], the Kb was 26.3 nM.

In the data set filed under Rattus norvegicus [6], `NC(=O)CC[C@@H]1NC(=O)[C@H](Cc2ccccc2)NC(=O)[C@H](Cc2ccc(O)cc2)NC(=O)[C@@H](N)CSSC[C@@H](C(=O)N2CCC[C@H]2C(=O)N[C@@H](CCCN=C(N)N)C(=O)NCC(N)=O)NC(=O)[C@H](CC(N)=O)NC1=O` (stereo in doubt; form 2) [VASOPRESSIN] showed an Antidiuretic of 212 U/mg.
